Source: PubChem BioAssay AID1918936 (Molecular Pharmacology Branch, DTP, NCI, 2023)

Test system: 349418-098-R-PDC complex spheroid viability
Test: Anticancer human tumor 349418-098-R-PDC patient-derived lung adenocarcinoma cell line growth inhibition
Conditions: for IC50: curve of first compound; for viability, T/C: stronger effect = lower value
Summary of the method: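 Drug combinations with the LSD1 inhibitor iadademstat tested on tumor cells co-cultured as spheroids with endothelial cells and mesenchymal stem cells. Concentrations descended in half-log increments from clinical Cmax or 10 microM.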

[1] = second compound 0.1 µM, first compound 0.00316 µM
[2] = second compound 0.1 µM, first compound 0.01 µM
[3] = second compound 0.1 µM, first compound 0.0316 µM
[4] = second compound 0.1 µM, first compound 0.1 µM
[5] = second compound 0.1 µM, first compound 0.316 µM
[6] = second compound 0.1 µM, first compound 1 µM
[7] = second compound 0.316 µM, first compound 0.00316 µM
[8] = second compound 0.316 µM, first compound 0.01 µM
[9] = second compound 0.316 µM, first compound 0.0316 µM
[10] = second compound 0.316 µM, first compound 0.1 µM
[11] = second compound 0.316 µM, first compound 0.316 µM
[12] = second compound 0.316 µM, first compound 1 µM
[13] = second compound 1 µM, first compound 0.00316 µM
[14] = second compound 1 µM, first compound 0.01 µM
[15] = second compound 1 µM, first compound 0.0316 µM
[16] = second compound 1 µM, first compound 0.1 µM
[17] = second compound 1 µM, first compound 0.316 µM
[18] = second compound 1 µM, first compound 1 µM
[19] = second compound 3.16 µM, first compound 0.00316 µM
[20] = second compound 3.16 µM, first compound 0.01 µM
[21] = second compound 3.16 µM, first compound 0.0316 µM
[22] = second compound 3.16 µM, first compound 0.1 µM
[23] = second compound 3.16 µM, first compound 0.316 µM
[24] = second compound 3.16 µM, first compound 1 µM
[25] = second compound 10 µM, first compound 0.00316 µM
[26] = second compound 10 µM, first compound 0.01 µM
[27] = second compound 10 µM, first compound 0.0316 µM
[28] = second compound 10 µM, first compound 0.1 µM
[29] = second compound 10 µM, first compound 0.316 µM
[30] = second compound 10 µM, first compound 1 µM
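Also: spheroids exposed to agents for seven days before readout.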
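For viability, T/C in this document: 100% = DMSO vehicle control wells.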

Q: What does the source list for `COc1cc(Nc2ncc3c(n2)-c2ccc(Cl)cc2C(c2c(F)cccc2OC)=NC3)ccc1C(=O)O` + NC1CC1c1ccc(-c2cccc(O)c2)cc1?
A: IC50 (second compound 0.1 µM): 0.026 µM; IC50 (second compound 0.316 µM): 0.0699 µM; IC50 (second compound 1 µM): 0.0539 µM; IC50 (second compound 3.16 µM): 0.0578 µM; IC50 (second compound 10 µM): 0.0429 µM; viability, T/C [1]: 75.4%; viability, T/C [2]: 53.7%; viability, T/C [3]: 50.2%; viability, T/C [4]: 48.7%; viability, T/C [5]: 47.5%; viability, T/C [6]: 38.7%; viability, T/C [7]: 74%; viability, T/C [8]: 54.4%; viability, T/C [9]: 55.4%; viability, T/C [10]: 51%; viability, T/C [11]: 45.8%; viability, T/C [12]: 38.2%; viability, T/C [13]: 79.1%; viability, T/C [14]: 54.5%; viability, T/C [15]: 51.8%; viability, T/C [16]: 55.4%; viability, T/C [17]: 50.4%; viability, T/C [18]: 35.2%; viability, T/C [19]: 73.2%; viability, T/C [20]: 47.5%; viability, T/C [21]: 59.6%; viability, T/C [22]: 47.5%; viability, T/C [23]: 43.7%; viability, T/C [24]: 31.1%; viability, T/C [25]: 62.1%; viability, T/C [26]: 44.7%; viability, T/C [27]: 55.1%; viability, T/C [28]: 49.1%; viability, T/C [29]: 34.4%; viability, T/C [30]: 25.4%

Q: For `Nc1ncn(C2CC(O)C(CO)S2)c(=O)n1` (stereo not given) + NC1CCC(NC2CC2c2ccccc2)CC1, which IC50 (second compound 0.1 µM) is on record?
A: 0.0185 µM

Q: And the IC50 (second compound 0.316 µM)?
A: 0.0192 µM

Q: What about the IC50 (second compound 1 µM) of the same compound?
A: 0.0203 µM

Q: And the IC50 (second compound 3.16 µM)?
A: 0.0192 µM

Q: And the IC50 (second compound 10 µM)?
A: 0.0124 µM

Q: What about the viability, T/C (second compound 0.1 µM, first compound 0.000949 µM) of the same compound?
A: 107%

Q: What about the viability, T/C (second compound 0.1 µM, first compound 0.003 µM) of the same compound?
A: 85.5%

Q: What about the viability, T/C (second compound 0.1 µM, first compound 0.00949 µM) of the same compound?
A: 71.7%

Q: And the viability, T/C (second compound 0.1 µM, first compound 0.03 µM)?
A: 34.7%

Q: And the viability, T/C (second compound 0.1 µM, first compound 0.0949 µM)?
A: 19.6%

Q: What about the viability, T/C (second compound 0.1 µM, first compound 0.3 µM) of the same compound?
A: 8.78%

Q: What about the viability, T/C (second compound 0.316 µM, first compound 0.000949 µM) of the same compound?
A: 104%

Q: And the viability, T/C (second compound 0.316 µM, first compound 0.003 µM)?
A: 100%

Q: And the viability, T/C (second compound 0.316 µM, first compound 0.00949 µM)?
A: 71.6%

Q: What about the viability, T/C (second compound 0.316 µM, first compound 0.03 µM) of the same compound?
A: 35.9%

Q: And the viability, T/C (second compound 0.316 µM, first compound 0.0949 µM)?
A: 16.1%

Q: And the viability, T/C (second compound 0.316 µM, first compound 0.3 µM)?
A: 9.32%

Q: What about the viability, T/C (second compound 1 µM, first compound 0.000949 µM) of the same compound?
A: 117%

Q: And the viability, T/C (second compound 1 µM, first compound 0.003 µM)?
A: 96.2%

Q: What about the viability, T/C (second compound 1 µM, first compound 0.00949 µM) of the same compound?
A: 74.3%

Q: And the viability, T/C (second compound 1 µM, first compound 0.03 µM)?
A: 38.1%

Q: And the viability, T/C (second compound 1 µM, first compound 0.0949 µM)?
A: 16.1%

Q: And the viability, T/C (second compound 1 µM, first compound 0.3 µM)?
A: 8.39%

Q: What about the viability, T/C (second compound 3.16 µM, first compound 0.000949 µM) of the same compound?
A: 97.5%

Q: What about the viability, T/C (second compound 3.16 µM, first compound 0.003 µM) of the same compound?
A: 89.8%

Q: What about the viability, T/C (second compound 3.16 µM, first compound 0.00949 µM) of the same compound?
A: 73.4%

Q: And the viability, T/C (second compound 3.16 µM, first compound 0.03 µM)?
A: 34.8%

Q: What about the viability, T/C (second compound 3.16 µM, first compound 0.0949 µM) of the same compound?
A: 15.6%

Q: And the viability, T/C (second compound 3.16 µM, first compound 0.3 µM)?
A: 7.02%

Q: What about the viability, T/C (second compound 10 µM, first compound 0.000949 µM) of the same compound?
A: 75.8%

Q: And the viability, T/C (second compound 10 µM, first compound 0.003 µM)?
A: 86%

Q: And the viability, T/C (second compound 10 µM, first compound 0.00949 µM)?
A: 51.1%

Q: What about the viability, T/C (second compound 10 µM, first compound 0.03 µM) of the same compound?
A: 30.3%

Q: What about the viability, T/C (second compound 10 µM, first compound 0.0949 µM) of the same compound?
A: 16%

Q: And the viability, T/C (second compound 10 µM, first compound 0.3 µM)?
A: 7.62%

Q: With `CC1COCCN1c1cc(C2(S(C)(=N)=O)CC2)nc(-c2ccnc3[nH]ccc23)n1` (stereo not given) + NC1CCC(NC2CC2c2ccccc2)CC1 as the compound, how does the IC50 (second compound 0.1 µM) read?
A: 0.371 µM

Q: What about the IC50 (second compound 0.316 µM) of the same compound?
A: 0.508 µM

Q: And the IC50 (second compound 1 µM)?
A: 0.487 µM

Q: And the IC50 (second compound 3.16 µM)?
A: 0.361 µM

Q: And the IC50 (second compound 10 µM)?
A: 0.433 µM

Q: And the viability, T/C [3]?
A: 115%

Q: What about the viability, T/C [4] of the same compound?
A: 115%

Q: And the viability, T/C [5]?
A: 55.5%

Q: And the viability, T/C [6]?
A: 16.1%

Q: And the viability, T/C (second compound 0.1 µM, first compound 3.16 µM)?
A: 11%

Q: What about the viability, T/C (second compound 0.1 µM, first compound 10 µM) of the same compound?
A: 8.02%

Q: And the viability, T/C [9]?
A: 120%

Q: And the viability, T/C [10]?
A: 101%

Q: What about the viability, T/C [11] of the same compound?
A: 72.5%

Q: And the viability, T/C [12]?
A: 19.6%

Q: What about the viability, T/C (second compound 0.316 µM, first compound 3.16 µM) of the same compound?
A: 9.52%

Q: What about the viability, T/C (second compound 0.316 µM, first compound 10 µM) of the same compound?
A: 8.34%

Q: What about the viability, T/C [15] of the same compound?
A: 114%

Q: What about the viability, T/C [16] of the same compound?
A: 104%

Q: And the viability, T/C [17]?
A: 68.6%

Q: And the viability, T/C [18]?
A: 19.2%

Q: What about the viability, T/C (second compound 1 µM, first compound 3.16 µM) of the same compound?
A: 10.2%

Q: And the viability, T/C (second compound 1 µM, first compound 10 µM)?
A: 7.6%

Q: And the viability, T/C [21]?
A: 116%

Q: And the viability, T/C [22]?
A: 113%

Q: What about the viability, T/C [23] of the same compound?
A: 53.6%

Q: What about the viability, T/C [24] of the same compound?
A: 18.1%

Q: What about the viability, T/C (second compound 3.16 µM, first compound 3.16 µM) of the same compound?
A: 10.3%

Q: And the viability, T/C (second compound 3.16 µM, first compound 10 µM)?
A: 7.61%

Q: And the viability, T/C [27]?
A: 107%

Q: What about the viability, T/C [28] of the same compound?
A: 87.3%

Q: What about the viability, T/C [29] of the same compound?
A: 65.7%

Q: What about the viability, T/C [30] of the same compound?
A: 15.8%

Q: What about the viability, T/C (second compound 10 µM, first compound 3.16 µM) of the same compound?
A: 9.23%

Q: What about the viability, T/C (second compound 10 µM, first compound 10 µM) of the same compound?
A: 5.82%

Q: `O=C(C=Cn1cnc(-c2cc(C(F)(F)F)cc(C(F)(F)F)c2)n1)NNc1cnccn1` + NC1CC1c1ccc(-c2cccc(O)c2)cc1 was tested. Which IC50 (second compound 0.1 µM) did it give?
A: < 0.00316 µM

Q: What about the IC50 (second compound 0.316 µM) of the same compound?
A: < 0.00316 µM

Q: What about the IC50 (second compound 1 µM) of the same compound?
A: < 0.00316 µM

Q: And the IC50 (second compound 3.16 µM)?
A: < 0.00316 µM

Q: What about the IC50 (second compound 10 µM) of the same compound?
A: < 0.00316 µM

Q: And the viability, T/C [1]?
A: 21.7%

Q: What about the viability, T/C [2] of the same compound?
A: 13.6%

Q: And the viability, T/C [3]?
A: 8.69%

Q: What about the viability, T/C [4] of the same compound?
A: 4.58%

Q: And the viability, T/C [5]?
A: 3.21%

Q: What about the viability, T/C [6] of the same compound?
A: 2.82%

Q: What about the viability, T/C [7] of the same compound?
A: 23%

Q: What about the viability, T/C [8] of the same compound?
A: 13.6%

Q: And the viability, T/C [9]?
A: 7.36%

Q: What about the viability, T/C [10] of the same compound?
A: 4.45%

Q: What about the viability, T/C [11] of the same compound?
A: 3.04%

Q: What about the viability, T/C [12] of the same compound?
A: 2.89%

Q: What about the viability, T/C [13] of the same compound?
A: 21.3%

Q: What about the viability, T/C [14] of the same compound?
A: 11.7%

Q: What about the viability, T/C [15] of the same compound?
A: 7.13%

Q: What about the viability, T/C [16] of the same compound?
A: 3.94%

Q: What about the viability, T/C [17] of the same compound?
A: 2.88%

Q: What about the viability, T/C [18] of the same compound?
A: 2.59%

Q: What about the viability, T/C [19] of the same compound?
A: 22.3%

Q: What about the viability, T/C [20] of the same compound?
A: 16.3%

Q: And the viability, T/C [21]?
A: 7.41%

Q: And the viability, T/C [22]?
A: 5%

Q: And the viability, T/C [23]?
A: 3.23%

Q: What about the viability, T/C [24] of the same compound?
A: 2.75%

Q: And the viability, T/C [25]?
A: 11.5%

Q: And the viability, T/C [26]?
A: 11.2%

Q: And the viability, T/C [27]?
A: 7.71%

Q: What about the viability, T/C [28] of the same compound?
A: 5.06%

Q: What about the viability, T/C [29] of the same compound?
A: 2.95%

Q: What about the viability, T/C [30] of the same compound?
A: 2.62%
